Test results from ChEMBL document CHEMBL3885861, “Open TG-GATES”.

Species: Rattus norvegicus
Experiment: Open TG-GATES - Regimen: Single
Assay type: toxicity, organism-based, Sprague-Dawley
Design: regimen Single, gender Male, age 6 weeks
Details: in vivo, po, route gavage; for Bas / Eos / Fbg / Hb / Ht / Lym / MCHC / MCV / Mono / Neu / PT / Plat / RBC / WBC / MCH / APTT: tissue Blood; for KIDNEY_L / KIDNEY_R / KIDNEY_TOTAL: tissue Kidney; for LIVER: tissue Liver; for ALT / AST / BUN / CRE / Cl / DBIL / GLC / IP / LDH / Na / RALB / TBIL / TC / TG / TP / gamma-GTP: tissue Plasma
[1] = 20 mg/kg, 3 h, dose level Middle

Work on `CC/C(=C(\c1ccccc1)c1ccc(OCCN(C)C)cc1)c1ccccc1` [TAMOXIFEN] yielded a Bas (6 mg/kg, 3 h, dose level Low) of 0%, an Eos (6 mg/kg, 3 h, dose level Low) of 1% and a Fbg (6 mg/kg, 3 h, dose level Low) of 247 mg/dL. For the same compound, the Hb (6 mg/kg, 3 h, dose level Low) was 13.1 g/dL, the Ht (6 mg/kg, 3 h, dose level Low) was 39.6% and the Lym (6 mg/kg, 3 h, dose level Low) was 78.4%. It also gave an MCHC (6 mg/kg, 3 h, dose level Low) of 33.1%, an MCV (6 mg/kg, 3 h, dose level Low) of 64.6 fL and a Mono (6 mg/kg, 3 h, dose level Low) of 3.4%. The Neu (6 mg/kg, 3 h, dose level Low) was 16.6%, the PT (6 mg/kg, 3 h, dose level Low) was 12 s and the Plat (6 mg/kg, 3 h, dose level Low) was 122.7 x10_4/uL. It also gave an RBC (6 mg/kg, 3 h, dose level Low) of 612.6 x10_4/ul, a WBC (6 mg/kg, 3 h, dose level Low) of 83.4 x10_2/uL and a KIDNEY_L (6 mg/kg, 3 h, dose level Low) of 0.8 g. For the same compound, the KIDNEY_R (6 mg/kg, 3 h, dose level Low) was 0.9 g, the KIDNEY_TOTAL (6 mg/kg, 3 h, dose level Low) was 1.7 g and the LIVER (6 mg/kg, 3 h, dose level Low) was 8.4 g. It also gave an ALT (6 mg/kg, 3 h, dose level Low) of 50.6 IU/L, an AST (6 mg/kg, 3 h, dose level Low) of 81.2 IU/L and a BUN (6 mg/kg, 3 h, dose level Low) of 11.2 mg/dL. It also gave a CRE (6 mg/kg, 3 h, dose level Low) of 0.2 mg/dL, a Cl (6 mg/kg, 3 h, dose level Low) of 107.6 meq/L and a DBIL (6 mg/kg, 3 h, dose level Low) of 0.032 mg/dL. For the same compound, the GLC (6 mg/kg, 3 h, dose level Low) was 173.4 mg/dL, the IP (6 mg/kg, 3 h, dose level Low) was 8.9 mg/dL and the LDH (6 mg/kg, 3 h, dose level Low) was 58.2 IU/L. The Na (6 mg/kg, 3 h, dose level Low) was 140.4 meq/L, the RALB (6 mg/kg, 3 h, dose level Low) was 2.6 g/dL and the TBIL (6 mg/kg, 3 h, dose level Low) was 0.046 mg/dL. It also gave a TC (6 mg/kg, 3 h, dose level Low) of 80.8 mg/dL, a TG (6 mg/kg, 3 h, dose level Low) of 113.6 mg/dL and a TP (6 mg/kg, 3 h, dose level Low) of 5.6 g/dL. It also gave a gamma-GTP (6 mg/kg, 3 h, dose level Low) of 1 IU/L, a TERMINAL_BW (6 mg/kg, 6 h, dose level Low) of 195.3 g and a Bas (6 mg/kg, 6 h, dose level Low) of 0%. It also gave an Eos (6 mg/kg, 6 h, dose level Low) of 1%, a Fbg (6 mg/kg, 6 h, dose level Low) of 258.6 mg/dL and a Hb (6 mg/kg, 6 h, dose level Low) of 13.1 g/dL. The Ht (6 mg/kg, 6 h, dose level Low) was 39.6%, the Lym (6 mg/kg, 6 h, dose level Low) was 77.4% and the MCH (6 mg/kg, 6 h, dose level Low) was 21.6 pg. The MCHC (6 mg/kg, 6 h, dose level Low) was 33.2%, the MCV (6 mg/kg, 6 h, dose level Low) was 65.1 fL and the Mono (6 mg/kg, 6 h, dose level Low) was 3.2%. The Neu (6 mg/kg, 6 h, dose level Low) was 18%, the PT (6 mg/kg, 6 h, dose level Low) was 12.1 s and the Plat (6 mg/kg, 6 h, dose level Low) was 120.4 x10_4/uL. It also gave an RBC (6 mg/kg, 6 h, dose level Low) of 608.2 x10_4/ul, a WBC (6 mg/kg, 6 h, dose level Low) of 67.4 x10_2/uL and a KIDNEY_L (6 mg/kg, 6 h, dose level Low) of 0.9 g. For the same compound, the KIDNEY_R (6 mg/kg, 6 h, dose level Low) was 0.9 g, the KIDNEY_TOTAL (6 mg/kg, 6 h, dose level Low) was 1.7 g and the LIVER (6 mg/kg, 6 h, dose level Low) was 8.2 g. For the same compound, the ALT (6 mg/kg, 6 h, dose level Low) was 41 IU/L, the AST (6 mg/kg, 6 h, dose level Low) was 77 IU/L and the BUN (6 mg/kg, 6 h, dose level Low) was 8.2 mg/dL. It also gave a CRE (6 mg/kg, 6 h, dose level Low) of 0.1 mg/dL, a Cl (6 mg/kg, 6 h, dose level Low) of 108.2 meq/L and a DBIL (6 mg/kg, 6 h, dose level Low) of 0.014 mg/dL. For the same compound, the GLC (6 mg/kg, 6 h, dose level Low) was 180.2 mg/dL, the IP (6 mg/kg, 6 h, dose level Low) was 10.9 mg/dL and the LDH (6 mg/kg, 6 h, dose level Low) was 93.6 IU/L. It also gave a Na (6 mg/kg, 6 h, dose level Low) of 141.6 meq/L, an RALB (6 mg/kg, 6 h, dose level Low) of 2.5 g/dL and a TBIL (6 mg/kg, 6 h, dose level Low) of 0.05 mg/dL. The TC (6 mg/kg, 6 h, dose level Low) was 81.4 mg/dL, the TG (6 mg/kg, 6 h, dose level Low) was 46.6 mg/dL and the TP (6 mg/kg, 6 h, dose level Low) was 5.4 g/dL. It also gave a gamma-GTP (6 mg/kg, 6 h, dose level Low) of 1.4 IU/L, a TERMINAL_BW (6 mg/kg, 9 h, dose level Low) of 191.5 g and an APTT (6 mg/kg, 9 h, dose level Low) of 16 s. For the same compound, the Bas (6 mg/kg, 9 h, dose level Low) was 0%, the Eos (6 mg/kg, 9 h, dose level Low) was 1% and the Fbg (6 mg/kg, 9 h, dose level Low) was 248.8 mg/dL. The Hb (6 mg/kg, 9 h, dose level Low) was 12.8 g/dL, the Lym (6 mg/kg, 9 h, dose level Low) was 68.8% and the MCH (6 mg/kg, 9 h, dose level Low) was 21.5 pg. For the same compound, the MCHC (6 mg/kg, 9 h, dose level Low) was 33.5%, the MCV (6 mg/kg, 9 h, dose level Low) was 64.3 fL and the Mono (6 mg/kg, 9 h, dose level Low) was 2.6%. The Neu (6 mg/kg, 9 h, dose level Low) was 27.2%, the PT (6 mg/kg, 9 h, dose level Low) was 12.5 s and the Plat (6 mg/kg, 9 h, dose level Low) was 116.1 x10_4/uL. It also gave an RBC (6 mg/kg, 9 h, dose level Low) of 597.4 x10_4/ul, a WBC (6 mg/kg, 9 h, dose level Low) of 68.7 x10_2/uL and a KIDNEY_L (6 mg/kg, 9 h, dose level Low) of 0.8 g. The KIDNEY_R (6 mg/kg, 9 h, dose level Low) was 0.8 g, the KIDNEY_TOTAL (6 mg/kg, 9 h, dose level Low) was 1.6 g and the LIVER (6 mg/kg, 9 h, dose level Low) was 7.1 g. The ALT (6 mg/kg, 9 h, dose level Low) was 39 IU/L, the AST (6 mg/kg, 9 h, dose level Low) was 77.2 IU/L and the BUN (6 mg/kg, 9 h, dose level Low) was 9.6 mg/dL. For the same compound, the CRE (6 mg/kg, 9 h, dose level Low) was 0.2 mg/dL, the Cl (6 mg/kg, 9 h, dose level Low) was 108.2 meq/L and the DBIL (6 mg/kg, 9 h, dose level Low) was 0.01 mg/dL. It also gave a GLC (6 mg/kg, 9 h, dose level Low) of 186.6 mg/dL, an IP (6 mg/kg, 9 h, dose level Low) of 11 mg/dL and an LDH (6 mg/kg, 9 h, dose level Low) of 62.4 IU/L. The Na (6 mg/kg, 9 h, dose level Low) was 143.6 meq/L, the RALB (6 mg/kg, 9 h, dose level Low) was 2.5 g/dL and the TBIL (6 mg/kg, 9 h, dose level Low) was 0.046 mg/dL. The TC (6 mg/kg, 9 h, dose level Low) was 67.2 mg/dL, the TG (6 mg/kg, 9 h, dose level Low) was 33.4 mg/dL and the TP (6 mg/kg, 9 h, dose level Low) was 5.3 g/dL. For the same compound, the gamma-GTP (6 mg/kg, 9 h, dose level Low) was 1 IU/L, the TERMINAL_BW (6 mg/kg, 24 h, dose level Low) was 194.3 g and the APTT (6 mg/kg, 24 h, dose level Low) was 17.4 s. The Bas (6 mg/kg, 24 h, dose level Low) was 0%, the Eos (6 mg/kg, 24 h, dose level Low) was 1.2% and the Fbg (6 mg/kg, 24 h, dose level Low) was 250.2 mg/dL. The Hb (6 mg/kg, 24 h, dose level Low) was 12.8 g/dL, the Ht (6 mg/kg, 24 h, dose level Low) was 38.6% and the Lym (6 mg/kg, 24 h, dose level Low) was 79%. It also gave an MCH (6 mg/kg, 24 h, dose level Low) of 20.9 pg, an MCHC (6 mg/kg, 24 h, dose level Low) of 33.2% and an MCV (6 mg/kg, 24 h, dose level Low) of 62.9 fL. It also gave a Mono (6 mg/kg, 24 h, dose level Low) of 3.2%, a Neu (6 mg/kg, 24 h, dose level Low) of 16.4% and a PT (6 mg/kg, 24 h, dose level Low) of 12.8 s. For the same compound, the Plat (6 mg/kg, 24 h, dose level Low) was 113.7 x10_4/uL, the RBC (6 mg/kg, 24 h, dose level Low) was 613.8 x10_4/ul and the WBC (6 mg/kg, 24 h, dose level Low) was 80.8 x10_2/uL. For the same compound, the KIDNEY_L (6 mg/kg, 24 h, dose level Low) was 0.9 g, the KIDNEY_R (6 mg/kg, 24 h, dose level Low) was 0.9 g and the KIDNEY_TOTAL (6 mg/kg, 24 h, dose level Low) was 1.7 g. It also gave an LIVER (6 mg/kg, 24 h, dose level Low) of 8.7 g, an ALT (6 mg/kg, 24 h, dose level Low) of 51 IU/L and an AST (6 mg/kg, 24 h, dose level Low) of 79.8 IU/L. It also gave a BUN (6 mg/kg, 24 h, dose level Low) of 12.8 mg/dL, a CRE (6 mg/kg, 24 h, dose level Low) of 0.2 mg/dL and a Cl (6 mg/kg, 24 h, dose level Low) of 108 meq/L. The DBIL (6 mg/kg, 24 h, dose level Low) was 0.012 mg/dL, the GLC (6 mg/kg, 24 h, dose level Low) was 184.4 mg/dL and the IP (6 mg/kg, 24 h, dose level Low) was 8 mg/dL. The LDH (6 mg/kg, 24 h, dose level Low) was 55.2 IU/L, the Na (6 mg/kg, 24 h, dose level Low) was 142.4 meq/L and the RALB (6 mg/kg, 24 h, dose level Low) was 2.5 g/dL. For the same compound, the TBIL (6 mg/kg, 24 h, dose level Low) was 0.036 mg/dL, the TC (6 mg/kg, 24 h, dose level Low) was 61.6 mg/dL and the TG (6 mg/kg, 24 h, dose level Low) was 64.2 mg/dL. The TP (6 mg/kg, 24 h, dose level Low) was 5.4 g/dL, the gamma-GTP (6 mg/kg, 24 h, dose level Low) was 1.4 IU/L and the TERMINAL_BW [1] was 194.9 g. It also gave an APTT [1] of 16.5 s and a Bas [1] of 0.2%.
